Measured values from US20020137929A1, “1 - (3-heterocyclylphenyl) isothiourea, -isourea, -guanidine and -amidine herbicidal agents” (Intellectual Property Department, BASF Aktiengesellschaft, priority 1998, published 2002).

Experiments:
ABUTH (Velvetleaf) [1] = assay: Postemergence herbicidal evaluation; format: in vivo, Abutilon theophrasti; settings: postemergence
Method in brief: (§1)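 Rate range approx. 0.0156–0.500 kg/ha. Foliar application at 40 psi to ~2-week seedlings; surfactant 0.5% TWEEN 20 in 50/50 acetone/water. Evaluation 4–5 wk post-treatment by 0–9 visual injury score, means of replicate tests.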

[2] = tested on: CHEAL (Lambsquarters, Common); assay: Postemergence herbicidal evaluation; format: in vivo, Chenopodium album; settings: postemergence
Method in brief: as §1

ECHCG (Barnyardgrass) = assay: Postemergence herbicidal evaluation; format: in vivo, Echinochloa crus-galli; settings: postemergence
Method in brief: as §1

[3] = tested on: GLXMAW (Soybean, Williams); assay: Postemergence herbicidal evaluation; format: in vivo, Glycine max, (L.) Merr. cv Williams; settings: postemergence
Method in brief: as §1

ABUTH (Velvetleaf) [4] = assay: Preemergence herbicidal evaluation; format: in vivo, Abutilon theophrasti; settings: rated 4-5 weeks after treatment
Method in brief: (§2)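 Scores use a 0–9 visual scale covering stand, vigor, malformation, size and chlorosis relative to controls, rated four to five weeks after treatment. Before emergence, soil-planted seeds were sprayed with compound in aqueous acetone at roughly 0.0156–0.500 kg/ha and held in the greenhouse.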

[5] = tested on: IPOHE (Morningglory, Ivyleaf); assay: Preemergence herbicidal evaluation; format: in vivo, Ipomoea hederacea; settings: rated 4-5 weeks after treatment
Method in brief: as §2

[6] = tested on: GLXMAW (Soybean, Williams); assay: Preemergence herbicidal evaluation; format: in vivo, Glycine max, (L.) Merr. cv Williams; settings: rated 4-5 weeks after treatment
Method in brief: as §2

ORYSAT (Rice, Tebonnet) [7] = assay: Preemergence herbicidal evaluation; format: in vivo, Oryza sativa, (L.) Tebonnet; settings: rated 4-5 weeks after treatment
Method in brief: as §2

ZEAMX (Corn, Field) = assay: Preemergence herbicidal evaluation; format: in vivo, Zea mays; settings: rated 4-5 weeks after treatment
Method in brief: as §2

CYPIR (Rice Flatsedge) = assay: Preemergence weed control under flooded paddy conditions; format: in vivo, Cyperus iria; settings: rated 3-4 weeks after treatment
Method in brief: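 Herbicidal effect is scored visually on a 0-9 scale against an untreated control, three to four weeks after compounds are pipetted into the flood water (1.5 to 3 cm deep) over seeds planted in silt loam at 0.5 cm depth. Rates: about 0.0313 to 0.500 kg/ha.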

CYPSE (Flatsedge) = assay: as above; format: in vivo, Cyperus serotinus; settings: rated 3-4 weeks after treatment
Method in brief: (§3)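 Visual injury scored 0-9 against control three to four weeks post-treatment, greenhouse-grown. Application: acetone/water (50/50) solutions dosed directly into flood water (1.5-3 cm over silt loam, planted top 0.5 cm), roughly 0.0313 to 0.500 kg/ha active ingredient.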

MOOVA (Monochoria) = assay: as above; format: in vivo, Monochoria vaginalis; settings: rated 3-4 weeks after treatment
Method in brief: as §3

ORYSAT (Rice, Tebonnet) [8] = assay: Rice tolerance to post-transplant applications, flooded paddy conditions (Table III); format: in vivo, Oryza sativa, (L.) Tebonnet; settings: in vivo
Method in brief: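 Injury scored 0-9 by eye against untreated control, judging stand, vigor, malformation, size and chlorosis, three to four weeks after treatment. Compound in 50/50 aqueous/acetone, about 0.0313 to 0.500 kg/ha, was applied to paddy water (1.5 to 3 cm depth) three days after transplanting paired ten-day-old Tebonnet rice seedlings.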

C#CCOC(=O)CN1C(=O)CSC1=Nc1cc(-n2c(=O)cc(C(F)(F)F)n(C)c2=O)c(F)cc1Cl [Compound 115, 2-Propynyl 2-{{2-chloro-5-[3,6-dihydro-3-methyl-2,6-dioxo-4-(trifluoromethyl)-1(2H)-pyrimidinyl]-4-fluorophenyl}imino}-4-oxo-3-thiazolidineacetate]
6.0: CYPIR herbicidal effect rating (CYPIR (Rice Flatsedge); 0.0625 kg/ha) | CYPSE herbicidal effect rating (CYPSE (Flatsedge); 0.2500 kg/ha)
9.0: Herbicidal rating ABUTH (ABUTH (Velvetleaf) [1]; rate 0.0315 kg/ha) | Herbicidal rating ABUTH (ABUTH (Velvetleaf) [1]; rate 0.0630 kg/ha) | Preemergence herbicidal rating ABUTH (ABUTH (Velvetleaf) [4]; rate 0.1250 kg/ha) | Preemergence herbicidal rating ABUTH (ABUTH (Velvetleaf) [4]; rate 0.2500 kg/ha) | CYPIR herbicidal effect rating (CYPIR (Rice Flatsedge); 0.1250 kg/ha) | CYPIR herbicidal effect rating (CYPIR (Rice Flatsedge); 0.2500 kg/ha) | MOOVA herbicidal effect rating (MOOVA (Monochoria); 0.0625 kg/ha) | MOOVA herbicidal effect rating (MOOVA (Monochoria); 0.1250 kg/ha) | MOOVA herbicidal effect rating (MOOVA (Monochoria); 0.2500 kg/ha)
3.0: Herbicidal rating ABUTH (ABUTH (Velvetleaf) [1]; rate 0.0158 kg/ha) | Herbicidal rating ECHCG (ECHCG (Barnyardgrass); rate 0.0630 kg/ha) | Preemergence herbicidal rating GLXMAW ([6]; rate 0.1250 kg/ha) | Preemergence herbicidal rating ORYSAT (ORYSAT (Rice, Tebonnet) [7]; rate 0.2500 kg/ha)
1.0: Herbicidal rating CHEAL ([2]; rate 0.0315 kg/ha) | Preemergence herbicidal rating GLXMAW ([6]; rate 0.0625 kg/ha) | Preemergence herbicidal rating ORYSAT (ORYSAT (Rice, Tebonnet) [7]; rate 0.1250 kg/ha) | Preemergence herbicidal rating ZEAMX (ZEAMX (Corn, Field); rate 0.1250 kg/ha)
7.0: Preemergence herbicidal rating IPOHE ([5]; rate 0.2500 kg/ha) | MOOVA herbicidal effect rating (MOOVA (Monochoria); 0.0313 kg/ha)
4.0: Herbicidal rating CHEAL ([2]; rate 0.0630 kg/ha) | Preemergence herbicidal rating GLXMAW ([6]; rate 0.2500 kg/ha)
2.0: Herbicidal rating ECHCG (ECHCG (Barnyardgrass); rate 0.0315 kg/ha) | Preemergence herbicidal rating IPOHE ([5]; rate 0.1250 kg/ha) | Preemergence herbicidal rating ZEAMX (ZEAMX (Corn, Field); rate 0.2500 kg/ha)
5.0: Herbicidal rating GLXMAW ([3]; rate 0.0158 kg/ha) | Herbicidal rating GLXMAW ([3]; rate 0.0315 kg/ha) | Herbicidal rating GLXMAW ([3]; rate 0.0630 kg/ha) | CYPIR herbicidal effect rating (CYPIR (Rice Flatsedge); 0.0313 kg/ha)
0.0: Herbicidal rating CHEAL ([2]; rate 0.0158 kg/ha) | Herbicidal rating ECHCG (ECHCG (Barnyardgrass); rate 0.0158 kg/ha) | Preemergence herbicidal rating ABUTH (ABUTH (Velvetleaf) [4]; rate 0.0156 kg/ha) | Preemergence herbicidal rating ABUTH (ABUTH (Velvetleaf) [4]; rate 0.0313 kg/ha) | Preemergence herbicidal rating ABUTH (ABUTH (Velvetleaf) [4]; rate 0.0625 kg/ha) | Preemergence herbicidal rating IPOHE ([5]; rate 0.0156 kg/ha) | Preemergence herbicidal rating IPOHE ([5]; rate 0.0313 kg/ha) | Preemergence herbicidal rating IPOHE ([5]; rate 0.0625 kg/ha) | Preemergence herbicidal rating GLXMAW ([6]; rate 0.0156 kg/ha) | Preemergence herbicidal rating GLXMAW ([6]; rate 0.0313 kg/ha) | Preemergence herbicidal rating ORYSAT (ORYSAT (Rice, Tebonnet) [7]; rate 0.0156 kg/ha) | Preemergence herbicidal rating ORYSAT (ORYSAT (Rice, Tebonnet) [7]; rate 0.0313 kg/ha) | Preemergence herbicidal rating ORYSAT (ORYSAT (Rice, Tebonnet) [7]; rate 0.0625 kg/ha) | Preemergence herbicidal rating ZEAMX (ZEAMX (Corn, Field); rate 0.0156 kg/ha) | Preemergence herbicidal rating ZEAMX (ZEAMX (Corn, Field); rate 0.0313 kg/ha) | Preemergence herbicidal rating ZEAMX (ZEAMX (Corn, Field); rate 0.0625 kg/ha) | CYPSE herbicidal effect rating (CYPSE (Flatsedge); 0.0313 kg/ha) | CYPSE herbicidal effect rating (CYPSE (Flatsedge); 0.0625 kg/ha)

COC(=O)C(C)OC(=O)CN1C(=O)CSC1=Nc1cc(-n2c(=O)cc(C(F)(F)F)n(C)c2=O)c(F)cc1Cl (stereo not drawn) [Compound 116, 2-{{2-Chloro-5-[3,6-dihydro-3-methyl-2,6-dioxo-4-(trifluoromethyl)-1(2H)-pyrimidinyl]-4-fluorophenyl}imino}-4-oxo-3-thiazolidineacetic acid, ester with methyl lactate]
0.0: Preemergence herbicidal rating ABUTH (ABUTH (Velvetleaf) [4]; rate 0.0156 kg/ha) | Preemergence herbicidal rating ABUTH (ABUTH (Velvetleaf) [4]; rate 0.0313 kg/ha) | Preemergence herbicidal rating IPOHE ([5]; rate 0.0156 kg/ha) | Preemergence herbicidal rating IPOHE ([5]; rate 0.0313 kg/ha) | Preemergence herbicidal rating IPOHE ([5]; rate 0.0625 kg/ha) | Preemergence herbicidal rating GLXMAW ([6]; rate 0.0625 kg/ha) | Preemergence herbicidal rating ORYSAT (ORYSAT (Rice, Tebonnet) [7]; rate 0.0156 kg/ha) | Preemergence herbicidal rating ORYSAT (ORYSAT (Rice, Tebonnet) [7]; rate 0.0313 kg/ha) | Preemergence herbicidal rating ORYSAT (ORYSAT (Rice, Tebonnet) [7]; rate 0.0625 kg/ha) | Preemergence herbicidal rating ORYSAT (ORYSAT (Rice, Tebonnet) [7]; rate 0.1250 kg/ha) | Preemergence herbicidal rating ZEAMX (ZEAMX (Corn, Field); rate 0.0156 kg/ha) | Preemergence herbicidal rating ZEAMX (ZEAMX (Corn, Field); rate 0.0313 kg/ha) | Preemergence herbicidal rating ZEAMX (ZEAMX (Corn, Field); rate 0.0625 kg/ha) | Preemergence herbicidal rating ZEAMX (ZEAMX (Corn, Field); rate 0.1250 kg/ha) | Preemergence herbicidal rating ZEAMX (ZEAMX (Corn, Field); rate 0.2500 kg/ha)
7.0: CYPIR herbicidal effect rating (CYPIR (Rice Flatsedge); 0.1250 kg/ha) | CYPIR herbicidal effect rating (CYPIR (Rice Flatsedge); 0.2500 kg/ha) | CYPSE herbicidal effect rating (CYPSE (Flatsedge); 0.1250 kg/ha) | herbicidal effect rating, MOOVA (MOOVA (Monochoria); 0.0313 kg/ha)
5.0: Herbicidal rating CHEAL ([2]; rate 0.0315 kg/ha)
8.0: CYPSE herbicidal effect rating (CYPSE (Flatsedge); 0.2500 kg/ha)
6.0: herbicidal effect rating, CYPIR (CYPIR (Rice Flatsedge); 0.0625 kg/ha) | herbicidal effect rating, CYPSE (CYPSE (Flatsedge); 0.0313 kg/ha) | herbicidal effect rating, CYPSE (CYPSE (Flatsedge); 0.0625 kg/ha)
4.0: Herbicidal rating CHEAL ([2]; rate 0.0158 kg/ha) | Preemergence herbicidal rating ABUTH (ABUTH (Velvetleaf) [4]; rate 0.0625 kg/ha) | ORYSAT herbicidal effect rating (rice tolerance) (ORYSAT (Rice, Tebonnet) [8])
3.0: Herbicidal rating ECHCG (ECHCG (Barnyardgrass); rate 0.0158 kg/ha) | Preemergence herbicidal rating IPOHE ([5]; rate 0.2500 kg/ha) | herbicidal effect rating, CYPIR (CYPIR (Rice Flatsedge); 0.0313 kg/ha)
1.0: Herbicidal rating ECHCG (ECHCG (Barnyardgrass); rate 0.0315 kg/ha) | Preemergence herbicidal rating IPOHE ([5]; rate 0.1250 kg/ha) | Preemergence herbicidal rating GLXMAW ([6]; rate 0.0156 kg/ha) | Preemergence herbicidal rating GLXMAW ([6]; rate 0.0313 kg/ha) | Preemergence herbicidal rating GLXMAW ([6]; rate 0.1250 kg/ha) | Preemergence herbicidal rating ORYSAT (ORYSAT (Rice, Tebonnet) [7]; rate 0.2500 kg/ha)
9.0: Herbicidal rating ABUTH (ABUTH (Velvetleaf) [1]; rate 0.0158 kg/ha) | Herbicidal rating ABUTH (ABUTH (Velvetleaf) [1]; rate 0.0315 kg/ha) | Herbicidal rating ABUTH (ABUTH (Velvetleaf) [1]; rate 0.0630 kg/ha) | Herbicidal rating CHEAL ([2]; rate 0.0630 kg/ha) | Preemergence herbicidal rating ABUTH (ABUTH (Velvetleaf) [4]; rate 0.1250 kg/ha) | Preemergence herbicidal rating ABUTH (ABUTH (Velvetleaf) [4]; rate 0.2500 kg/ha) | herbicidal effect rating, MOOVA (MOOVA (Monochoria); 0.0625 kg/ha) | MOOVA herbicidal effect rating (MOOVA (Monochoria); 0.1250 kg/ha) | MOOVA herbicidal effect rating (MOOVA (Monochoria); 0.2500 kg/ha)
5.5: Herbicidal rating GLXMAW ([3]; rate 0.0158 kg/ha) | Herbicidal rating GLXMAW ([3]; rate 0.0315 kg/ha) | Herbicidal rating GLXMAW ([3]; rate 0.0630 kg/ha)
2.0: Herbicidal rating ECHCG (ECHCG (Barnyardgrass); rate 0.0630 kg/ha) | Preemergence herbicidal rating GLXMAW ([6]; rate 0.2500 kg/ha) | herbicidal effect rating, ORYSAT (rice tolerance) (ORYSAT (Rice, Tebonnet) [8])
